Source: patent publication US20170368082A1, “FORMULATIONS OF BRINCIDOFOVIR” (priority 2016, published 2017)
Like-named read-outs stand apart in the source and are kept apart here.

Experiments:
[1] = Preclinical infusion system assembly (rats) compatibility; type: physicochemical; settings: 0.2 mg/mL (Test #1)
Description: The compatibility of the following brincidofovir formulations with an infusion system assembly for dosing of rats (consisting of a syringe, tether, catheter and syringe pump) was tested
a.) 0.2 mg/mL brincidofovir, 4 mM sodium phosphate, pH˜8.0, approx. 4.90% dextrose; b.) 1.5 mg/mL brincidofovir, 30 mM sodium phosphate, pH-8.0, approx. 4.25% dextrose.
Both solutions were prepared via dilution of the developed brincidofovir formulation (10 mg/mL brincidofovir, 200 mM sodium phosphate, pH=8.0) with a 5% dextrose solution. The testing procedure can be summarized as follows: • 1. The appearance, pH, and c(BCV) of the bulk testing solutions (0.2 mg/mL BCV, 4 mM sodium phosphate, pH-8.0, approx. 4.90% dextrose, and 1.5 mg/mL BCV, 30 mM sodium phosphate, pH˜8.0, approx. 4.25% dextrose were assessed pre-contact. • 2. Approximately 5 mL of the testing solution was drawn into a syringe which was then connected to the assembled infusion system (Vascular Access Harness (VAH) tether kit, the VAH port for rat jacket, and catheter). • 3. The infusion system was manually filled with the testing solution. Approximately 200 μL of the testing solution were pushed out of the infusion system and collected as an end-of-line sample (to) for the assessments of appearance and c(BCV). • 4. The syringe of the testing infusion system was mounted onto the syringe pump, and a flow rate was set to a flow of 1.2 mL/h ([…]) for a total dispensing volume of 2.4 mL (120 min). • 5. The entire flow-through was collected over the course of the experiment. At the respective time points (t10min, t105 min), end-of-line samples (approx. 200 μL) were collected for analysis. • 6. The pH of the bulk flow-through was measured at the end of the experiment (t120 min), since the volume of samples acquired from previous time points (200 μL) was too small for a standard pH measurement.

[2] = Clinical infusion bag compatibility; type: physicochemical
Description: A standard mini-infusion bag (100 mL) was subjected to material compatibility testing with the following formulation:
The developed brincidofovir formulation (15 mg/mL brincidofovir, 200 mM sodium phosphate, pH=8.0) was diluted to c(BCV)=0.1 and c(BCV)=1.0 mg/mL by injection into the infusion bags. The infusion bags were then stored at ambient conditions, and samples were collected from the infusion bags at the time points (t0, t1h, t8h, and t24h) for assessments of appearance, pH, and c(BCV). As a control, the 5% dextrose solution was removed from a separate infusion bag, and external dilutions (standard laboratory glassware) of the testing formulation with the 5% dextrose solution were performed applying identical dilution factors. Samples of the external diluted solution were likewise analyzed.
Solutions of Formulation 3a, in a 5% dextrose injection vehicle, were prepared at two different formulation strengths (1.0 mg/mL and 0.1 mg/mL brincidofovir), and stored in the infusion bag at ambient conditions. Samples form the infusion bags and from an externally diluted standard were evaluated for appearance, pH and brincidofovir recovery (determined via HPLC) at the beginning of the study (t0), after 8 h (t8h), and after 24 h (t24h).

[3] = IV BCV single ascending dose study: plasma BCV and CDV PK; type: in vivo, human; settings: for Tmax / clearance / half-life / AUC(0-inf) / Cmax / Vd: human; for Tmax: intravenous; for clearance / half-life / AUC(0-inf) / Cmax / Vd: plasma; for Vd: read-out: Vss
Description: Plasma PK samples were collected over 7 days and assayed by HPLC-MS. Plasma BCV PK parameters were determined by non-compartmental analysis and dose proportionality was assessed. Safety assessments were collected over 14 days.

[4] = PBMC PK of CDV-PP following IV and oral suspension BCV; type: in vivo, human; settings: BCV 50 mg, 2- or 4-h IV infusion
Description: Two single dose BCV studies in healthy subjects contributed data for this analysis. The first study was a 2-period crossover bioequivalence study that enrolled 24 subjects who received two formulations of BCV oral suspension 100 mg fasted, one in each period. Data from 12 subjects who had PBMCs collected in Period 1 were included in this analysis; these subjects were 100% female, 31-59 years, and 58-88 kg. The second study, outlined above, enrolled 40 subjects who received IV BCV or placebo. Data from 18 subjects who received BCV 50 mg as either a 2-h or 4-h IV infusion were included in this analysis; these subjects were 100% male, 18-46 years, 64-106 kg. Serial PBMC samples were collected over 14 days and assayed by HPLC-MS-MS. PBMC CDV-PP PK parameters were determined by non-compartmental analysis.

[5] = cited from earlier work
[6] = c(BCV) 0.1 mg/mL in infusion bag, t0
[7] = c(BCV) 0.1 mg/mL in infusion bag, t1 h
[8] = c(BCV) 0.1 mg/mL in infusion bag, t8 h
[9] = c(BCV) 0.1 mg/mL in infusion bag, t24 h
[10] = c(BCV) 0.1 mg/mL, external dilution
[11] = c(BCV) 1.0 mg/mL in infusion bag, t0
[12] = c(BCV) 1.0 mg/mL in infusion bag, t1 h
[13] = c(BCV) 1.0 mg/mL in infusion bag, t8 h
[14] = c(BCV) 1.0 mg/mL in infusion bag, t24 h
[15] = c(BCV) 1.0 mg/mL, external dilution
[16] = iv, 10 mg, plasma BCV, Cohort 1, BCV 10 mg 2 h IV infusion, n = 6
[17] = iv, 25 mg, plasma BCV, Cohort 2, BCV 25 mg 2 h IV infusion, n = 6
[18] = iv, 50 mg, plasma BCV, Cohort 3, BCV 50 mg 2 h IV infusion, n = 9
[19] = iv, 50 mg, plasma BCV, Cohort 4, BCV 50 mg 4 h IV infusion, n = 9

Structure (SMILES): CCCCCCCCCCCCCCCCOCCCOP(=O)(O)CO[C@H](CO)Cn1ccc(N)nc1=O [Brincidofovir]
- Appearance ([1]; pre contact (bulk solution)): Clear, colorless
- Measured pH ([1]; pre contact (bulk solution)): 8.0
- Observed c(BCV) ([1]; pre contact (bulk solution)): 0.21 mg/mL
- Appearance ([1]; t0): Clear, colorless
- Observed c(BCV) ([1]; t0): 0.19 mg/mL
- Appearance ([1]; t10 min): Clear, colorless
- Observed c(BCV) ([1]; t10 min): 0.16 mg/mL
- Appearance ([1]; t105 min): Clear, colorless
- Observed c(BCV) ([1]; t105 min): 0.20 mg/mL
- Appearance ([1]; t120 min (bulk solution)): Clear, colorless
- Measured pH ([1]; t120 min (bulk solution)): 8.0
- Appearance [2, 6]: Clear,
- Measured pH [2, 6]: 7.9
- Observed c(BCV) [2, 6]: 0.092 mg/mL
- Appearance [2, 7]: Clear,
- Measured pH [2, 7]: 7.9
- Observed c(BCV) [2, 7]: 0.093 mg/mL
- Appearance [2, 8]: Clear,
- Measured pH [2, 8]: 7.9
- Observed c(BCV) [2, 8]: 0.093 mg/mL
- Appearance [2, 9]: Clear,
- Measured pH [2, 9]: 7.9
- Observed c(BCV) [2, 9]: 0.093 mg/mL
- Appearance [2, 10]: Clear,
- Measured pH [2, 10]: 7.9
- Observed c(BCV) [2, 10]: 0.098 mg/mL
- Appearance [2, 11]: Clear,
- Measured pH [2, 11]: 8.2
- Observed c(BCV) [2, 11]: 0.87 mg/mL
- Appearance [2, 12]: Clear,
- Measured pH [2, 12]: 8.2
- Observed c(BCV) [2, 12]: 0.87 mg/mL
- Appearance [2, 13]: Clear,
- Measured pH [2, 13]: 8.2
- Observed c(BCV) [2, 13]: 0.87 mg/mL
- Appearance [2, 14]: Clear,
- Measured pH [2, 14]: 8.1
- Observed c(BCV) [2, 14]: 0.86 mg/mL
- Appearance [2, 15]: Clear,
- Measured pH [2, 15]: 8.2
- Observed c(BCV) [2, 15]: 0.94 mg/mL
- Geometric mean plasma BCV AUC∞ relative to oral 100 mg tablets ([3]; BCV IV 50 mg): 4.5 fold
- Plasma BCV Cmax and AUCs vs dose ([3]; IV single ascending dose): increased in proportion to dose
- Tmax ([3]; 50 mg, plasma BCV, 4-hour infusion (Cohort 4)): 2.5 to 4 h
- Tmax ([3]; plasma BCV, Cohorts 1-3 (2-hour infusion)): 2 h
- clearance [3, 16]: 127 mL/min
- half-life [3, 16]: 3.42 h
- AUC(0-inf) ([3]; iv, 10 mg, plasma BCV, Cohort 1, BCV 10 mg 2 h IV infusion, n = 6, geometric mean, read-out: AUC∞): 1.31 µg·h/mL
- Cmax ([3]; iv, 10 mg, plasma BCV, Cohort 1, BCV 10 mg 2 h IV infusion, n = 6, geometric mean, read-out: Cmax): 0.613 µg/mL
- Vd [3, 16]: 16.4 L
- clearance [3, 17]: 144 mL/min
- half-life [3, 17]: 5.89 h
- AUC(0-inf) ([3]; iv, 25 mg, plasma BCV, Cohort 2, BCV 25 mg 2 h IV infusion, n = 6, geometric mean, read-out: AUC∞): 2.89 µg·h/mL
- Cmax ([3]; iv, 25 mg, plasma BCV, Cohort 2, BCV 25 mg 2 h IV infusion, n = 6, geometric mean, read-out: Cmax): 1.41 µg/mL
- Vd [3, 17]: 19.8 L
- clearance [3, 18]: 140 mL/min
- half-life [3, 18]: 6.54 h
- AUC(0-inf) ([3]; iv, 50 mg, plasma BCV, Cohort 3, BCV 50 mg 2 h IV infusion, n = 9, geometric mean, read-out: AUC∞): 5.95 µg·h/mL
- Cmax ([3]; iv, 50 mg, plasma BCV, Cohort 3, BCV 50 mg 2 h IV infusion, n = 9, geometric mean, read-out: Cmax): 2.95 µg/mL
- Vd [3, 18]: 19.5 L
- clearance [3, 19]: 127 mL/min
- half-life [3, 19]: 5.1 h
- AUC(0-inf) ([3]; iv, 50 mg, plasma BCV, Cohort 4, BCV 50 mg 4 h IV infusion, n = 9, geometric mean, read-out: AUC∞): 6.57 µg·h/mL
- Cmax ([3]; iv, 50 mg, plasma BCV, Cohort 4, BCV 50 mg 4 h IV infusion, n = 9, geometric mean, read-out: Cmax): 1.59 µg/mL
- Vd [3, 19]: 10.8 L
- AUC(0-inf) ([3]; po, 100 mg, BCV oral 100 mg tablets, read-out: Plasma BCV AUC∞): 1.39 µg·h/mL
- Cmax ([3]; po, 100 mg, BCV oral 100 mg tablets, read-out: Plasma BCV Cmax): 0.251 µg/mL
- Intracellular CDV-PP exposure vs BCV 100 mg oral suspension [4]: comparable
- Instance of diarrhea ([5]; single oral dose 100 mg and 200 mg): about 5%
- Instance of diarrhea ([5]; single oral dose 350 mg): about 20%
